Data: patent US8969388B1, “Substituted pyrazolone compounds and methods of use” (Calitor Sciences, LLC, priority 2012, dated 2015)
Like-named read-outs stand apart in the source and are kept apart here.

Assays:
[1] = Pharmacokinetics after intravenous and oral administration in rats; assay type: in vivo; details: for F: oral bioavailability, oral dose not given; for AUC(0-t) / half-life / Vd: rat, plasma; for clearance (CL) after iv dosing / AUC(0-t) / half-life / Vd: iv dosing; for Vd: read-out: Vss
Experimental: The compounds disclosed herein are assessed in pharmacokinetic studies in mice, rats, dogs or monkeys. The compounds are administered as a water solution, 2% HPMC+1% TWEEN®80 in water solution, 5% DMSO+5% solutol in saline, 4% MC suspension or capsule. For the intravenous administration, the animals are generally given at 1 or 2 mg/kg dose. For the oral (p.o.) dosing, mice and rats are generally given 5 or 10 mg/kg dose, and dogs and monkeys are generally given 10 mg/kg dose. The blood samples (0.3 mL) are drawn at 0.25, 0.5, 1.0, 2.0, 3.0, 4.0, 6.0, 8.0, 12 and 24 h time points or 0.083, 0.25, 0.5, 1.0, 2.0, 4.0, 6.0, 8.0 and 24 h time points and centrifuged at 3,000 or 4000 rpm for 2 to 10 min. The plasma solutions are collected, stored at −20° C. or −70° C. until analyzed by LC/MS/MS as described above.

[2] = target: T1, KDR (h) (Homo sapiens, UniProt P35968); experiment: KDR (h) (VEGF-R2 (h)) kinase assay (IC50); assay type: biochemical; details: cells marked (IC50) in the Kd table
T1 construct: host or cells: E. coli BL21-derived host (T7 phage) or HEK-293
T1 sequence (P35968 20-1356): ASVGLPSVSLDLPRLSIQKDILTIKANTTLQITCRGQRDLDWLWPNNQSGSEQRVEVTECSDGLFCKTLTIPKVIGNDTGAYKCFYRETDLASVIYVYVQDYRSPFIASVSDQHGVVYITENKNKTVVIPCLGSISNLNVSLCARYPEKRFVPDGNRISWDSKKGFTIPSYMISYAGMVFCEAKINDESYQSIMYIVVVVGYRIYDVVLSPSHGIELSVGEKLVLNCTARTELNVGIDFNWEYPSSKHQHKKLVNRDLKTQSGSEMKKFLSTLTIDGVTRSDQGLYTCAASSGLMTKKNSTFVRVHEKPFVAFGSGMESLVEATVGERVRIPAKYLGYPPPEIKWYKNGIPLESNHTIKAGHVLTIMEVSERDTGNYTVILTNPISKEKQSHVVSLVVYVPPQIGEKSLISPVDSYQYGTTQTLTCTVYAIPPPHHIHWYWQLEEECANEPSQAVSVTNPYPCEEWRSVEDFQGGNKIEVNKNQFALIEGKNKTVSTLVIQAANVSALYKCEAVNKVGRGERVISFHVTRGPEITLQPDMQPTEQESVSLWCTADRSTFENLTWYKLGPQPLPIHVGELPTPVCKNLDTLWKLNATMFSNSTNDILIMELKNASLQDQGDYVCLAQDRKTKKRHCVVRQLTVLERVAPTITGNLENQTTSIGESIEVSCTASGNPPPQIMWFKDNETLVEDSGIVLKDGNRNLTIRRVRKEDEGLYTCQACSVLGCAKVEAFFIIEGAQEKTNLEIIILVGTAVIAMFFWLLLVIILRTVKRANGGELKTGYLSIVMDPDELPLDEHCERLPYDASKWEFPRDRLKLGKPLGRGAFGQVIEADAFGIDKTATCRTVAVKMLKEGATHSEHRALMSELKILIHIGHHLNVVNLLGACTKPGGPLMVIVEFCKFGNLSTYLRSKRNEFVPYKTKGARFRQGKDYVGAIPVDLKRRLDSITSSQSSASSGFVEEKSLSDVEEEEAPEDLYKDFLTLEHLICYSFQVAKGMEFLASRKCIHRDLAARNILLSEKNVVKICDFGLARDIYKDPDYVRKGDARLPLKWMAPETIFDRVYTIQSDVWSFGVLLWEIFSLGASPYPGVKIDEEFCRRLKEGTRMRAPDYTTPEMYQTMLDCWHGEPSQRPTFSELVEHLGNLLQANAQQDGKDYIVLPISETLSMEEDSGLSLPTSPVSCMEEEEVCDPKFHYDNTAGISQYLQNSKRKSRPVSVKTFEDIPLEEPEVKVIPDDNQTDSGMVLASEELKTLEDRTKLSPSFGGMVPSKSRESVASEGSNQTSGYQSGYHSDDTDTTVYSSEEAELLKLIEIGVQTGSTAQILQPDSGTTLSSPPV
Experimental: (§1) The above assay procedure can be used to determine the IC50 for inhibition and/or the inhibition constant, Ki. The IC50 is defined as the concentration of compound required to reduce the enzyme activity by 50% under the condition of the assay. The IC50 value is estimated by preparing a 10 point curve using a ½ log dilution series (for example, a typical curve may be prepared using the following compound concentrations; 100 μM, 30 μM, 10 μM, 3 μM, 1 μM, 0.3 μM, 0.1 μM, 0.03 μM, 0.01 μM and 0 μM).
KDR (h) (VEGF-R2 (h)) Assay
(§2) (specific activity approx. 500 cpm/pmol, concentration as required).
(§3) The kinase assays described herein can be performed at Millipore UK Ltd, Dundee Technology Park, Dundee DD2 1SW, UK c-Met (h) Assay.

[3] = target: T2, c-Met (h) (Homo sapiens, UniProt P08581); experiment: c-Met (h) kinase assay (IC50); assay type: biochemical; details: cells marked (IC50) in the Kd table
T2 construct: host or cells: E. coli BL21-derived host (T7 phage) or HEK-293
T2 sequence (P08581 25-1390): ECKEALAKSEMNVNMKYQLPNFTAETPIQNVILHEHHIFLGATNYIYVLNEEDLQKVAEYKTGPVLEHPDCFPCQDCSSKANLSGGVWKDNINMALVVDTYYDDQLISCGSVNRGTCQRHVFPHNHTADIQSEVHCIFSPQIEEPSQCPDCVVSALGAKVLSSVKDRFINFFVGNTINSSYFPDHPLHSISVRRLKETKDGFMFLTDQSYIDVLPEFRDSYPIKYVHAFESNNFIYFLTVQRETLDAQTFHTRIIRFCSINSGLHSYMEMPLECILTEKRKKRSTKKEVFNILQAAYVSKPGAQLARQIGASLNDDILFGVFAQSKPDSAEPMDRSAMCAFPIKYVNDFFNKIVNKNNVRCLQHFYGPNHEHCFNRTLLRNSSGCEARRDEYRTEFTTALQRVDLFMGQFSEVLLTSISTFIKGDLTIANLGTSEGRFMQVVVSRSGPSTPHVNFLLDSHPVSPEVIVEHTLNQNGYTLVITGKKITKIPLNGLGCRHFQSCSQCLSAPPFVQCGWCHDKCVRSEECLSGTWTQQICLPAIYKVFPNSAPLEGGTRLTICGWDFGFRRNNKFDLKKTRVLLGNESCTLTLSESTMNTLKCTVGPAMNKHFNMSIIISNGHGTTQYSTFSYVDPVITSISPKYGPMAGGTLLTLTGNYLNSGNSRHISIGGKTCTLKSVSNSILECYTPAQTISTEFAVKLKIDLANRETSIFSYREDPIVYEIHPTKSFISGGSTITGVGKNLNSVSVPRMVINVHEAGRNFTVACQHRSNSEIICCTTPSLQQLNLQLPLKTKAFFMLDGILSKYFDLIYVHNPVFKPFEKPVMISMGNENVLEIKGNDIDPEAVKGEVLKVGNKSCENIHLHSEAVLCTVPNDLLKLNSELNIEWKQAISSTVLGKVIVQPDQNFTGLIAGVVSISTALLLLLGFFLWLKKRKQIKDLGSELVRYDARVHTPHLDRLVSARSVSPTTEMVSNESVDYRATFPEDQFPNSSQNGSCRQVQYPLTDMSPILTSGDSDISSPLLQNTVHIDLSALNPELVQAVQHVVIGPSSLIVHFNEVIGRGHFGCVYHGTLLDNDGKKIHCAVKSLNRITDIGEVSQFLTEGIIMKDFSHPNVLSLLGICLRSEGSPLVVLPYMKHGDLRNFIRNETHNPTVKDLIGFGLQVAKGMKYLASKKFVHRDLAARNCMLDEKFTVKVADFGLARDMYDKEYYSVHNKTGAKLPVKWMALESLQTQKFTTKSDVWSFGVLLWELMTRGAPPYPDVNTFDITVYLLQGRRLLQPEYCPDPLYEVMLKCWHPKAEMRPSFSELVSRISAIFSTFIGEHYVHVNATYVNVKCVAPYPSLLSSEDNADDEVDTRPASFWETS
Experimental: as §1, §2, §3

[4] = Compound stability in human liver microsomes; assay type: in vitro ADME; details: pH 7.4; for half-life at 5 μM: human liver microsomes 0.5 mg protein/mL, compound 5 μM, NADPH, 37° C., read-out: Human T1/2; for CLint scaled at 5 μM: human liver microsomes, in vivo CLint extrapolated
Experimental: (§4) Human or rat liver microsomes incubations were conducted in duplicate in polypropylene tubes. The typical incubation mixtures consisted of human liver microsomes (0.5 mg protein/mL), compounds of interest (5 μM) and NADPH (1.0 mM) in a total volume of 200 μL potassium phosphate buffer (PBS, 100 mM, pH 7.4). Compounds were dissolved in DMSO and diluted with PBS such that the final concentration of DMSO was 0.05%. The enzymatic reactions were commenced with the addition of protein after a 3-min preincubation and incubated in a water bath open to the air at 37° C. Reactions were terminated at various time points (0, 5, 10, 15, 30, 60 min) by adding equal volume of ice-cold acetonitrile. The samples were stored at −80° C. until LC/MS/MS assays.
(§5) The concentrations of compounds in the incubation mixtures of human liver microsomes were determined by a LC/MS/MS method. The ranges of the linearity in the concentration range were determined for each tested compounds.
(§6) A parallel incubation was performed using denatured microsomes as the negative control, and reactions were terminated at various time points (0, 15, 60 min) after incubation at 37° C.
(§7) Dextromethorphan (70 μM) was selected as the positive control, and reactions were terminated at various time points (0, 5, 10, 15, 30, 60 min) after incubation at 37° C. Both positive and negative control samples were included in each assay to ensure the integrity of the microsomal incubation system.
(§8) The concentrations of compounds in human liver microsome incubations were plotted as a percentage of the relevant zero time point control for each reaction. The in vivo CLint were extrapolated (ref: Naritomi Y, Terashita S, Kimura S, Suzuki A, Kagayama A, Sugiyama Y. Prediction of human hepatic clearance from in vivo animal experiments and in vitro metabolic studies with liver microsomes from animals and humans. Drug Metabolism and Disposition 2001, 29: 1316-1324.)

[5] = Compound stability in rat liver microsomes; assay type: in vitro ADME; details: for half-life at 5 μM: pH 7.4, compound 5 μM, NADPH, 37° C., read-out: Rat T1/2; for CLint scaled at 5 μM: pH 7.4, in vivo CLint extrapolated
Experimental: as §4, §5, §6, §7, §8

[6] = target: T1, KDR (h); experiment: KINOMEscan competition binding assay, KDR (h)
Experimental: (§9) Alternatively, the kinase activities of the compounds can be measured using KINOMEscan™, which is based on a competition binding assay that quantitatively measures the ability of a compound to compete with an immobilized, active-site directed ligand. The assay was performed by combining three components: DNA-tagged kinase; immobilized ligand; and a test compound. The ability of the test compound to compete with the immobilized ligand was measured via quantitative PCR of the DNA tag.
(§10) For most assays, kinase-tagged T7 phage strains were prepared in an E. coli host derived from the BL21 strain. E. coli were grown to log-phase and infected with T7 phage and incubated with shaking at 32° C. until lysis. The lysates were centrifuged and filtered to remove cell debris. The remaining kinases were produced in HEK-293 cells and subsequently tagged with DNA for qPCR detection. Streptavidin-coated magnetic beads were treated with biotinylated small molecule ligands for 30 minutes at room temperature to generate affinity resins for kinase assays. The liganded beads were blocked with excess biotin and washed with blocking buffer (SEABLOCK™ (Pierce), 1% BSA, 0.05% TWEEN®20, 1 mM DTT) to remove unbound ligand and to reduce nonspecific binding. Binding reactions were assembled by combining kinases, liganded affinity beads, and test compounds in 1× binding buffer (20% SEABLOCK™, 0.17×PBS, 0.05% TWEEN®20, 6 mM DTT). All reactions were performed in polystyrene 96-well plates in a final volume of 0.135 mL. The assay plates were incubated at room temperature with shaking for 1 hour and the affinity beads were washed with wash buffer (1×PBS, 0.05% TWEEN®20). The beads were then re-suspended in elution buffer (1×PBS, 0.05% TWEEN®20, 0.5 μM non-biotinylated affinity ligand) and incubated at room temperature with shaking for 30 minutes. The kinase concentration in the eluates was measured by qPCR.
(§11) The kinase assays described herein were performed using KINOMEscan™ Profiling Service at DiscoveRx Corporation, 42501 Albrae St. Fremont, Calif.

[7] = target: T2, c-Met (h); experiment: KINOMEscan competition binding assay, c-Met (h)
Experimental: as §9, §10, §11

[8] = test system: U87MG glioblastoma cells; experiment: U87MG tumor xenograft model, tumor growth inhibition; assay type: in vivo, athymic nude mice (BALB/cA nu/nu); details: mice, oral gavage
Experimental: The efficacy of compounds disclosed herein was evaluated in a standard murine model of tumorigenesis. Human tumor cells (U87MG glioblastoma cells from ATCC) were expended in culture, harvested, and injected subcutaneously onto the rear flank of 6-7 week old female athymic nude mice (BALB/cA nu/nu, Hunan SLAC Laboratory Animal, Co.) (n=6-10 for vehicle group and for each dosing group). When tumors reached a volume of 100-250 mm^3, animals were randomly divided into vehicle control (for example, 5% DMSO+70% Captisol® (30%), 7% HCl (pH1), 18% Captisol® (30%); or 7% DMSO, 7% HCl (pH1), 70% Captisol® (30%), 16% Captisol® (30%), or the like) and compound groups. Subsequent administration of compound by oral gavage begins anywhere from day 0 to day 15 post tumor cell challenge and generally continues with once a day for the duration of the experiment.
Progression of tumor growth is assessed by tumor volumes and recorded as a function of time. The long (L) and short (W) axes of the subcutaneous tumors were measured with calipers twice weekly, and the tumor volume (TV) calculated as (L×W^2)/2). TGI was calculated from the difference between the median tumor volumes of vehicle-treated and drug-treated mice, expressed as a percentage of the median tumor volume of the vehicle-treated control group, by the following relation:
[formula] Initial statistical analysis is done by repeated measures analysis of variance (RMANOVA), followed by Scheffe psot hoc testing for multiple comparisons. Vehicle alone (5% DMSO+70% Captisol® (30%), 7% HCl (pH1), 18% Captisol® (30%); or 7% DMSO, 7% HCl (pH1), 70% Captisol® (30%), 16% Captisol® (30%), or the like) is the negative control.

Row | Structure (SMILES) | clearance (CL) after iv dosing ([1]; 1 mg/kg) | F ([1]; iv dose 1 mg/kg) | AUC(0-t) ([1]; 1 mg/kg) | half-life ([1]; 1 mg/kg) | Vd ([1]; 1 mg/kg) | half-life at 5 μM [4] | CLint scaled at 5 μM [4] | half-life at 5 μM [5] | CLint scaled at 5 μM [5] | clearance (CL) after iv dosing ([1]; 2 mg/kg) | F ([1]; iv dose 2 mg/kg) | AUC(0-t) ([1]; 2 mg/kg) | half-life ([1]; 2 mg/kg) | Vd ([1]; 2 mg/kg) | Kd [6] | Kd [7] | further results
1 | Cc1c(C(=O)Nc2ccc(Oc3ccnc(N)c3Cl)c(F)c2)c(=O)n(-c2ccccc2)n1C [Ex. 3, N-(4-((2-amino-3-chloropyridin-4-yl)oxy)-3-fluorophenyl)-1,5-dimethyl-3-oxo-2-phenyl-2,3-dihydro-1H-pyrazole-4-carboxamide] | 17 mL/min/kg | 177.1% | 922 ng·h/mL | 2.69 h | 1.61 L/kg | 12.4 h | 2.34 mL/min/kg | 1.02 h | 40.6 mL/min/kg | – | – | – | – | – | 23 nM | 4.4 nM | TGI % (on last day of dosing) ([8]; 10 mg/kg, 16 days): 53%; TGI % (on last day of dosing) ([8]; 20 mg/kg, 16 days): 68%; TGI % (on last day of dosing) ([8]; 40 mg/kg, 16 days): 85%
2 | CC(=O)Nc1cc(Oc2ccc(NC(=O)c3c(C)n(C)n(-c4ccccc4)c3=O)nc2)ccn1 [Ex. 17, N-(5-((2-acetamidopyridin-4-yl)oxy)pyridin-2-yl)-1,5-dimethyl-3-oxo-2-phenyl-2,3-dihydro-1H-pyrazole-4-carboxamide] | – | – | – | – | – | – | – | – | – | 0.5 mL/min/kg | 59.7% | 69900 ng·h/mL | 7.29 h | 0.22 L/kg | 25 nM | 20 nM | TGI % (on last day of dosing) ([8]; 6 mg/kg, 12 days): 26%; TGI % (on last day of dosing) ([8]; 20 mg/kg, 12 days): 56%; TGI % (on last day of dosing) ([8]; 60 mg/kg, 12 days): 85%
3 | Cc1c(C(=O)Nc2ccc(Oc3ccnc(NC(=O)N4CCOCC4)c3)cn2)c(=O)n(-c2ccccc2)n1C [Ex. 18, N-(4-((6-(1,5-dimethyl-3-oxo-2-phenyl-2,3-dihydro-1H-pyrazole-4-carboxamido)pyridin-3-yl)oxy)pyridin-2-yl)morpholine-4-carboxamide] | 4 mL/min/kg | 77.2% | 4290 ng·h/mL | 1.23 h | 0.36 L/kg | – | – | – | – | – | – | – | – | – | 39 nM | 2.9 nM | TGI % (on last day of dosing) ([8]; 6 mg/kg, 14 days): 28%; TGI % (on last day of dosing) ([8]; 20 mg/kg, 14 days): 49%; TGI % (on last day of dosing) ([8]; 60 mg/kg, 14 days): 57%
4 | Cc1c(C(=O)Nc2ccc(Oc3ccnc(N)c3Cl)cc2)c(=O)n(-c2ccccc2)n1C [Ex. 2, N-(4-((2-amino-3-chloropyridin-4-yl)oxy)phenyl)-1,5-dimethyl-3-oxo-2-phenyl-2,3-dihydro-1H-pyrazole-4-carboxamide] | 23.2 mL/min/kg | 98.5% | 685 ng·h/mL | 4.1 h | 1.75 L/kg | – | – | – | – | – | – | – | – | – | 43 nM | 13 nM | TGI % (on last day of dosing) ([8]; 6 mg/kg, 14 days): 29%; TGI % (on last day of dosing) ([8]; 20 mg/kg, 14 days): 69%; TGI % (on last day of dosing) ([8]; 60 mg/kg, 14 days): 82%

The next lines start with results.

Row | clearance (CL) after iv dosing ([1]; 1 mg/kg) | F ([1]; iv dose 1 mg/kg) | AUC(0-t) ([1]; 1 mg/kg) | half-life ([1]; 1 mg/kg) | Vd ([1]; 1 mg/kg) | half-life at 5 μM [4] | CLint scaled at 5 μM [4] | half-life at 5 μM [5] | CLint scaled at 5 μM [5] | clearance (CL) after iv dosing ([1]; 2 mg/kg) | F ([1]; iv dose 2 mg/kg) | AUC(0-t) ([1]; 2 mg/kg) | half-life ([1]; 2 mg/kg) | Vd ([1]; 2 mg/kg) | Kd [6] | Kd [7] | Structure (SMILES) | further results
5 | 23.7 mL/min/kg | 31.2% | 706 ng·h/mL | 1.13 h | 0.68 L/kg | – | – | – | – | – | – | – | – | – | – | – | Cc1c(C(=O)Nc2ccc(Oc3ccnc(N)c3)cc2)c(=O)n(-c2ccccc2)n1C [Ex. 1, N-(4-((2-aminopyridin-4-yl)oxy)phenyl)-1,5-dimethyl-3-oxo-2-phenyl-2,3-dihydro-1H-pyrazole-4-carboxamide] | IC50 [2]: > 3000 nM; IC50 [3]: 611 nM
6 | – | – | – | – | – | 2.44 h | 11.8 mL/min/kg | 0.611 h | 67.8 mL/min/kg | 8.83 mL/min/kg | 70.3% | 3910 ng·h/mL | 3.29 h | 0.4 L/kg | – | – | Cc1c(C(=O)Nc2ccc(Oc3ccnc(N)c3Cl)cc2F)c(=O)n(-c2ccccc2)n1C [Ex. 31, N-(4-((2-amino-3-chloropyridin-4-yl)oxy)-2-fluorophenyl)-1,5-dimethyl-3-oxo-2-phenyl-2,3-dihydro-1H-pyrazole-4-carboxamide] | –
7 | – | – | – | – | – | 2.09 h | 13.9 mL/min/kg | 1.61 h | 25.8 mL/min/kg | 22 mL/min/kg | 54.4% | 1490 ng·h/mL | 11.8 h | 2.64 L/kg | – | – | Cc1c(C(=O)Nc2ccc(Oc3ccnc(N)c3)cc2F)c(=O)n(-c2ccccc2)n1C [Ex. 30, N-(4-((2-aminopyridin-4-yl)oxy)-2-fluorophenyl)-1,5-dimethyl-3-oxo-2-phenyl-2,3-dihydro-1H-pyrazole-4-carboxamide] | –
